Source: US20050282755A1, “Compositions having antimicrobial activity and uses thereof” (priority 2004, published 2005)
Converted amounts (≈) assume the structure as drawn. Non-standard residues stand in square brackets, D forms with d. Residues, ends and D or L forms follow the SMILES beside them. *: point of attachment. Palmitoyl = CCCCCCCCCCCCCCCC(=O)*; Lauroyl = CCCCCCCCCCCC(=O)*; Octanoyl = CCCCCCCC(=O)*; Hexanoyl = CCCCCC(=O)*

How the values were obtained:
Format in all cases: cell-based
[1] = system: Staphylococcus aureus ATCC 29213; experiment: MIC, NCCLS M7-A6 broth microdilution, cation-adjusted Mueller Hinton broth (Table 9, no superscript); settings: ATCC 29213
Summary of the method: (§1)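 Broth microdilution in cation-adjusted Mueller Hinton broth, log-phase inoculum giving 5×10^5 to 1×10^6 CFU/milliliter per well. Overnight incubation at 37° C. MIC taken as lowest peptide concentration with no visible turbidity versus a no-peptide control.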

[2] = system: Salmonella dublin (Lane); experiment: MIC, NCCLS M7-A6 broth microdilution (Table 9, no superscript)
Summary of the method: as §1

[3] = system: Pseudomonas aeruginosa ATCC 27853; experiment: as above; settings: ATCC 27853
Summary of the method: as §1

[4] = system: Staphylococcus epidermidis ATCC 12228; experiment: as above; settings: ATCC 12228
Summary of the method: as §1

[5] = system: Escherichia coli ATCC 25922; experiment: as above; settings: ATCC 25922
Summary of the method: as §1

Row | MIC S. aureus [1] | MIC S. dublin [2] | MIC P. aeruginosa [3] | MIC S. epidermidis [4] | MIC E. coli [5] | SMILES
1 | 32 mg/L (≈ 16.1 µM) | 64 mg/L (≈ 32.2 µM) | 64 mg/L (≈ 32.2 µM) | 8 mg/L (≈ 4.03 µM) | 32 mg/L (≈ 16.1 µM) | CCCCCCCC(=O)NCCCC[C@H](NC(=O)[C@H](CCCNC(=N)N)NC(=O)[C@H](CC(C)C)NC(=O)[C@H](Cc1ccccc1)NC(=O)[C@H](CC(N)=O)NC(=O)[C@H](CCCNC(=N)N)NC(=O)[C@H](C)NC(=O)[C@@H](NC(=O)[C@H](CC(=O)O)NC(=O)[C@H](CCCNC(=N)N)NC(=O)[C@H](Cc1c[nH]c2ccccc12)NC(=O)[C@H](CCCNC(=N)N)NC(=O)[C@H](CO)NC(=O)[C@@H](N)CCCNC(=N)N)C(C)C)C(N)=O [Peptide 179, H2N-RSRWRDVARNFLRK(Octanyl)-NH2] (H-RSRWRDVARNFLRK(Octanoyl)-NH2)
2 | 32 mg/L (≈ 15.3 µM) | 32 mg/L (≈ 15.3 µM) | 64 mg/L (≈ 30.5 µM) | 4 mg/L (≈ 1.91 µM) | >64 mg/L | CCCCCCCCCCCCCCCC(=O)NCCCC[C@H](NC(=O)[C@H](CCCNC(=N)N)NC(=O)[C@H](CC(C)C)NC(=O)[C@H](Cc1ccccc1)NC(=O)[C@H](CC(N)=O)NC(=O)[C@H](CCCNC(=N)N)NC(=O)[C@H](C)NC(=O)[C@@H](NC(=O)[C@H](CC(=O)O)NC(=O)[C@H](CCCNC(=N)N)NC(=O)[C@H](Cc1c[nH]c2ccccc12)NC(=O)[C@H](CCCNC(=N)N)NC(=O)[C@H](CO)NC(=O)[C@@H](N)CCCNC(=N)N)C(C)C)C(N)=O [Peptide 182, H2N-RSRWRDVARNFLRK(Palmitoyl)-NH2] (H-RSRWRDVARNFLRK(Palmitoyl)-NH2)
3 | 64 mg/L (≈ 31.9 µM) | 16 mg/L (≈ 7.99 µM) | >64 mg/L | 2 mg/L (≈ 0.998 µM) | 16 mg/L (≈ 7.99 µM) | CCCCCCCC(=O)NCCCC[C@H](NC(=O)[C@H](CCCNC(=N)N)NC(=O)[C@H](CCSC)NC(=O)[C@H](Cc1ccccc1)NC(=O)[C@H](CC(N)=O)NC(=O)[C@H](CCCNC(=N)N)NC(=O)[C@H](C)NC(=O)[C@@H](NC(=O)[C@H](CC(=O)O)NC(=O)[C@H](CCCNC(=N)N)NC(=O)[C@H](Cc1c[nH]c2ccccc12)NC(=O)[C@H](CCCNC(=N)N)NC(=O)[C@H](CO)NC(=O)[C@@H](N)CCCNC(=N)N)C(C)C)C(N)=O [Peptide 184, H2N-RSRWRDVARNFMRK(Octanyl)-NH2] (H-RSRWRDVARNFMRK(Octanoyl)-NH2)
4 | >64 mg/L | >64 mg/L | >64 mg/L | 16 mg/L (≈ 8.75 µM) | 64 mg/L (≈ 35 µM) | CCCCCC(=O)N[C@H](CCCNC(=N)N)C(=O)N[C@H](CO)C(=O)N[C@H](CCCNC(=N)N)C(=O)N[C@H](Cc1c[nH]c2ccccc12)C(=O)N[C@H](CCCNC(=N)N)C(=O)N[C@H](CC(=O)O)C(=O)N[C@@H](C(=O)N[C@H](C)C(=O)N[C@H](CCCNC(=N)N)C(=O)N[C@H](CC(N)=O)C(=O)N[C@H](Cc1ccccc1)C(=O)N[C@H](CC(C)C)C(=O)N[C@H](CCCNC(=N)N)C(N)=O)C(C)C [Peptide 188, Hexyl-rsrwrdvarnflr-NH2] (Hexanoyl-[dR][dS][dR][dW][dR][dD][dV][dA][dR][dN][dF][dL][dR]-NH2)
5 | 32 mg/L (≈ 17.2 µM) | 8 mg/L (≈ 4.31 µM) | 32 mg/L (≈ 17.2 µM) | 4 mg/L (≈ 2.15 µM) | 16 mg/L (≈ 8.62 µM) | CCCCCCCC(=O)N[C@H](CCCNC(=N)N)C(=O)N[C@H](CO)C(=O)N[C@H](CCCNC(=N)N)C(=O)N[C@H](Cc1c[nH]c2ccccc12)C(=O)N[C@H](CCCNC(=N)N)C(=O)N[C@H](CC(=O)O)C(=O)N[C@@H](C(=O)N[C@H](C)C(=O)N[C@H](CCCNC(=N)N)C(=O)N[C@H](CC(N)=O)C(=O)N[C@H](Cc1ccccc1)C(=O)N[C@H](CC(C)C)C(=O)N[C@H](CCCNC(=N)N)C(N)=O)C(C)C [Peptide 189, Octyl-rsrwrdvarnflr-NH2] (Octanoyl-[dR][dS][dR][dW][dR][dD][dV][dA][dR][dN][dF][dL][dR]-NH2)
6 | 64 mg/L (≈ 32.5 µM) | 8 mg/L (≈ 4.06 µM) | >64 mg/L | 4 mg/L (≈ 2.03 µM) | 64 mg/L (≈ 32.5 µM) | CCCCCCCCCCCCCCCC(=O)N[C@H](CCCNC(=N)N)C(=O)N[C@H](CO)C(=O)N[C@H](CCCNC(=N)N)C(=O)N[C@H](Cc1c[nH]c2ccccc12)C(=O)N[C@H](CCCNC(=N)N)C(=O)N[C@H](CC(=O)O)C(=O)N[C@@H](C(=O)N[C@H](C)C(=O)N[C@H](CCCNC(=N)N)C(=O)N[C@H](CC(N)=O)C(=O)N[C@H](Cc1ccccc1)C(=O)N[C@H](CC(C)C)C(=O)N[C@H](CCCNC(=N)N)C(N)=O)C(C)C [Peptide 191, Palmitoyl-rsrwrdvarnflr-NH2] (Palmitoyl-[dR][dS][dR][dW][dR][dD][dV][dA][dR][dN][dF][dL][dR]-NH2)
7 | 64 mg/L (≈ 30.5 µM) | 64 mg/L (≈ 30.5 µM) | >64 mg/L | 32 mg/L (≈ 15.3 µM) | >64 mg/L | CCCCCCCCCCCCCCCC(=O)NCCCC[C@@H](NC(=O)[C@@H](CCCNC(=N)N)NC(=O)[C@@H](CC(C)C)NC(=O)[C@@H](Cc1ccccc1)NC(=O)[C@@H](CC(N)=O)NC(=O)[C@@H](CCCNC(=N)N)NC(=O)[C@@H](C)NC(=O)[C@H](NC(=O)[C@@H](CC(=O)O)NC(=O)[C@@H](CCCNC(=N)N)NC(=O)[C@@H](Cc1c[nH]c2ccccc12)NC(=O)[C@@H](CCCNC(=N)N)NC(=O)[C@@H](CO)NC(=O)[C@H](N)CCCNC(=N)N)C(C)C)C(N)=O [Peptide 196, H2N-rsrwrdvarnflrk(Palmitoyl)-NH2] (H-[dR][dS][dR][dW][dR][dD][dV][dA][dR][dN][dF][dL][dR][dK](Palmitoyl)-NH2)
8 | >64 mg/L | >64 mg/L | >64 mg/L | 32 mg/L (≈ 17.3 µM) | 64 mg/L (≈ 34.6 µM) | CCCCCC(=O)N[C@H](CCCNC(=N)N)C(=O)N[C@H](CO)C(=O)N[C@H](CCCNC(=N)N)C(=O)N[C@H](Cc1c[nH]c2ccccc12)C(=O)N[C@H](CCCNC(=N)N)C(=O)N[C@H](CC(=O)O)C(=O)N[C@@H](C(=O)N[C@H](C)C(=O)N[C@H](CCCNC(=N)N)C(=O)N[C@H](CC(N)=O)C(=O)N[C@H](Cc1ccccc1)C(=O)N[C@H](CCSC)C(=O)N[C@H](CCCNC(=N)N)C(N)=O)C(C)C [Peptide 206, Hexyl-rsrwrdvarnfmr-NH2] (Hexanoyl-[dR][dS][dR][dW][dR][dD][dV][dA][dR][dN][dF][dM][dR]-NH2)
9 | 1 mg/L (≈ 0.566 µM) | 2 mg/L (≈ 1.13 µM) | 8 mg/L (≈ 4.52 µM) | 2 mg/L (≈ 1.13 µM) | 16 mg/L (≈ 9.05 µM) | CCCCCCCCCCCC(=O)N[C@H](CCCNC(=N)N)C(=O)N[C@H](C)C(=O)N[C@H](CCCNC(=N)N)C(=O)N[C@H](Cc1c[nH]c2ccccc12)C(=O)N[C@H](CCCNC(=N)N)C(=O)N[C@H](C)C(=O)N[C@@H](C(=O)N[C@H](C)C(=O)N[C@H](CCCNC(=N)N)C(=O)N[C@H](C)C(=O)N[C@H](Cc1ccccc1)C(=O)N[C@H](C)C(=O)N[C@H](CCCNC(=N)N)C(N)=O)C(C)C [Peptide 217, Lauryl-rarwravarafar-NH2] (Lauroyl-[dR][dA][dR][dW][dR][dA][dV][dA][dR][dA][dF][dA][dR]-NH2)
10 | 64 mg/L (≈ 34.7 µM) | 64 mg/L (≈ 34.7 µM) | >64 mg/L | 16 mg/L (≈ 8.67 µM) | >64 mg/L | CCCCCCCCCCCC(=O)N[C@H](CCCNC(=N)N)C(=O)N[C@H](CO)C(=O)N[C@H](C)C(=O)N[C@H](Cc1c[nH]c2ccccc12)C(=O)N[C@H](CCCNC(=N)N)C(=O)N[C@H](CC(=O)O)C(=O)N[C@@H](C(=O)N[C@H](C)C(=O)N[C@H](CCCNC(=N)N)C(=O)N[C@H](CC(N)=O)C(=O)N[C@H](Cc1ccccc1)C(=O)N[C@H](CCSC)C(=O)N[C@H](CCCNC(=N)N)C(N)=O)C(C)C [Peptide 228, Lauryl-rsawrdvarnfmr-NH2] (Lauroyl-[dR][dS][dA][dW][dR][dD][dV][dA][dR][dN][dF][dM][dR]-NH2)
11 | 8 mg/L (≈ 4.33 µM) | 8 mg/L (≈ 4.33 µM) | 8 mg/L (≈ 4.33 µM) | 4 mg/L (≈ 2.17 µM) | 8 mg/L (≈ 4.33 µM) | CCCCCCCCCCCC(=O)N[C@H](CCCNC(=N)N)C(=O)N[C@H](CO)C(=O)N[C@H](CCCNC(=N)N)C(=O)N[C@H](Cc1c[nH]c2ccccc12)C(=O)N[C@H](C)C(=O)N[C@H](CC(=O)O)C(=O)N[C@@H](C(=O)N[C@H](C)C(=O)N[C@H](CCCNC(=N)N)C(=O)N[C@H](CC(N)=O)C(=O)N[C@H](Cc1ccccc1)C(=O)N[C@H](CCSC)C(=O)N[C@H](CCCNC(=N)N)C(N)=O)C(C)C [Peptide 229, Lauryl-rsrwadvarnfmr-NH2] (Lauroyl-[dR][dS][dR][dW][dA][dD][dV][dA][dR][dN][dF][dM][dR]-NH2)
12 | >64 mg/L | >64 mg/L | >64 mg/L | 4 mg/L (≈ 2.17 µM) | >64 mg/L | CCCCCCCCCCCC(=O)N[C@H](CCCNC(=N)N)C(=O)N[C@H](CO)C(=O)N[C@H](CCCNC(=N)N)C(=O)N[C@H](Cc1c[nH]c2ccccc12)C(=O)N[C@H](CCCNC(=N)N)C(=O)N[C@H](CC(=O)O)C(=O)N[C@@H](C(=O)N[C@H](C)C(=O)N[C@H](C)C(=O)N[C@H](CC(N)=O)C(=O)N[C@H](Cc1ccccc1)C(=O)N[C@H](CCSC)C(=O)N[C@H](CCCNC(=N)N)C(N)=O)C(C)C [Peptide 230, Lauryl-rsrwrdvaanfmr-NH2] (Lauroyl-[dR][dS][dR][dW][dR][dD][dV][dA][dA][dN][dF][dM][dR]-NH2)
